Article PMC13499021, “Cellular Assays for Dynamic Quantification of Deubiquitinase Activity and Inhibition” (Journal of molecular biology, 2023)

Legend:
Assay type in all cases: cell-based, SARS-CoV-2
SARS2 PL^pro Y268C = system: SARS2 PL^pro Y268C
SARS2 PL^pro L162F = system: SARS2 PL^pro L162F
SARS2 PL^pro Y268H = system: SARS2 PL^pro Y268H
SARS2 PL^pro Q269R = system: SARS2 PL^pro Q269R
SARS2 PL^pro N267K = system: SARS2 PL^pro N267K
SARS2 PL^pro N267D = system: SARS2 PL^pro N267D
SARS2 PL^pro P248L = system: SARS2 PL^pro P248L
SARS2 PL^pro Y264H = system: SARS2 PL^pro Y264H

For GRL0617, the decrease in potency (SARS2 PL^pro Y268C) was greater than 10 fold, the “resistance phenotype in dose response curves” value (“resistance phenotype” for short) (SARS2 PL^pro Y268C) was “near-complete resistance” and the “increase in IC50” value (SARS2 PL^pro L162F) was roughly 8 fold. The decrease in potency (SARS2 PL^pro Y268H) was greater than 10 fold, the “impact of mutation on GRL0617 potency” value (SARS2 PL^pro Q269R) was “little impact” and the “impact of mutation on GRL0617 potency” value (SARS2 PL^pro N267K) was “little impact”. For the same substance, the “impact of mutation on GRL0617 potency” value (SARS2 PL^pro N267D) was “little impact”, the decrease in potency (SARS2 PL^pro P248L) was greater than 10 fold and the “resistance phenotype” value (SARS2 PL^pro P248L) was “near-complete resistance”. The decrease in potency (SARS2 PL^pro Y264H) was greater than 10 fold and the “resistance phenotype” value (SARS2 PL^pro Y264H) was “near-complete resistance”.
